A short description of data set [1]: Foaming power study (foam developed by brush in rotating graduated container). In kind it is physicochemical. Conditions: 5% aqueous solution (weight/volume), 5 ml with 6 mg natural feminine sebum; for Foam Height (cm) at the end of a time of 60 sec: 60 sec of stirring; for Foam Height (cm) at the end of a time of 120 sec: 120 sec of stirring; for Foam Height (cm) at the end of a time of 180 sec: 180 sec of stirring. The procedure: The test consists in developing the foam using a brush made of natural hog bristles (length=18 mm) displaced in a plexiglass graduated cylindrical container (inside diameter=35 mm). This container is driven in a uniform circular motion which is the reverse of that described by the brush. This permits a good distribution of the foam in the graduated container despite the small amounts developed. (brush speed =100 rpm, container speed =10 rpm). The procedure is carried out using 5 ml of each solution studied to which has been added 6 mg of natural feminine sebum. The foam heights are recorded after one, two and three minutes of stirring.

Data set [2] has as its system human stratum corneum previously delipidated. The data set is described as follows: Hydrating effect on the skin: reduction of water loss of delipidated stratum corneum (evaporimeter). Conditions: 3% solution in 2:1 dichloromethane:methanol applied on delipidated human stratum corneum; measured 3 hours after treatment. The procedure:
In this test, the hydrating effect is evaluated by measuring the reduction of water loss of human stratum corneum previously delipidated. The stratum corneum is delipidated for one hour with a 2:1 dichloromethane/methanol mixture.
This test is effected in accordance with a method analogous to that described by J. L. Leveque et coll., J. Soc. Cosmet. Chem., 30, 333-343 (1979).
The following procedures are carried out:
The water flow (g/m^2.H) traversing a sample of stratum corneum placed below a water reservoir is measured. Using an evaporimeter (Servomed, registered mark), the evaporation values before and after treatment are registered, and the eventual reduction of the insensible loss of water is thus determined.
The treatment consists in applying on the sample of stratum corneum […] of a 3% solution in a 2:1 dichloromethane: methanol mixture of the compound being studied. The measurements are carried out 3 hours after this treatment.
On the basis of this test the compound of Example 2 is compared with N-oleoyl-glycyl-glycine (compound B) and with the olvent (2:1 dichloromethane:methanol) alone.

Where a SMILES comes first, the peptide text is derived from it. [ ]: non-standard residue; d: D form. The star is where a group is joined. ξ: configuration not given here. Oleoyl = CCCCCCCC/C=C\CCCCCCCC(=O)*; Lauroyl = CCCCCCCCCCCC(=O)*; ξS = NC(CO)C(=O)O

Consider `CCCCCCCCCCCC(=O)NCC(=O)NC(CO)C(=O)[O-].[Na+]` (centres unmarked) [Ex. 5, Sodium Salt of N-dodecanoyl-glycyl-(D,L) Serine] (Lauroyl-Gly-[ξS]-OH), for which, in data set [1], the “Foam Height (cm) at the end of a time of 60 sec” value came to 12.5 cm, the “Foam Height (cm) at the end of a time of 120 sec” value is 21.25 cm and the “Foam Height (cm) at the end of a time of 180 sec” value amounted to 28.75 cm.

In the case of `CCCCCCCC/C=C\CCCCCCCC(=O)NCC(=O)NC(CO)C(=O)O` (centres unmarked) [Example 2, N-oleoyl-glycyl-(D,L) Serine] (Oleoyl-Gly-[ξS]-OH), the “Reduction of the insensible loss of water” value in data set [2] is 32% ± 3.

For `CCCCCCCCCCCC(=O)NCC(=O)NCC(=O)[O-].[Na+]` [compound A, sodium salt of N-dodecanoyl-glycyl-glycine] (Lauroyl-Gly-Gly-OH), in data set [1], the “Foam Height (cm) at the end of a time of 60 sec” value is reported as 11.25 cm, the “Foam Height (cm) at the end of a time of 120 sec” value is listed as 13.75 cm and the “Foam Height (cm) at the end of a time of 180 sec” value was found to be 20 cm.

Regarding `CCCCCCCC/C=C\CCCCCCCC(=O)NCC(=O)NCC(=O)O` [compound B, N-oleoyl-glycyl-glycine] (Oleoyl-Gly-Gly-OH), the “Reduction of the insensible loss of water” value in data set [2] is 6% ± 3.

Values taken from patent US5234909A, “Dipeptidic amides derived from glycyl-serine as surfactants or hydrating agents and cosmetic, pharmaceutical or alimentary compositions containing the same” (L'Oreal, priority 1991, dated 1993).
